Data set [1] in a line: CD time-course of structures formed by peptide 1 with legumain. It counts as physicochemical. To be noted: after two weeks with legumain, 37° C. On the procedure:
A time-course study of the legumain assay was also run. Peptide 1 was dissolved at 0.333 mg/mL in low far-UV absorbance CD buffer, pH 5.5-6. Legumain was activated for abut 2 hours at 37° C. in far-UV absorbance CD buffer, pH 4. Spectra were acquired from 260-190 nm with 1.0 nm band-width, 20 nm/min scan speed, and 2 sec integration time. A 5 minute acquisition cycle was automatically run 26 times, followed by manual acquisitions at 28 hours, 53 hours, 78 hours, and 14 days. The temperature was maintained at 37° C. throughout. Legumain (333 ng/mL) was mixed with peptide 1 just prior to acquisition of the second spectrum (the 0 min time point). All spectra were subsequently background subtracted and then smoothed using a Savitsky-Golay filter. Data are presented in units of molar circular dichroism, Δε(M^−1 cm^−1).

A further data set deals with T1, legumain (Mus musculus, UniProt O89017).
T1 construct: purchased Novus Biologicals
T1 sequence (O89017 18-325 limits assumed): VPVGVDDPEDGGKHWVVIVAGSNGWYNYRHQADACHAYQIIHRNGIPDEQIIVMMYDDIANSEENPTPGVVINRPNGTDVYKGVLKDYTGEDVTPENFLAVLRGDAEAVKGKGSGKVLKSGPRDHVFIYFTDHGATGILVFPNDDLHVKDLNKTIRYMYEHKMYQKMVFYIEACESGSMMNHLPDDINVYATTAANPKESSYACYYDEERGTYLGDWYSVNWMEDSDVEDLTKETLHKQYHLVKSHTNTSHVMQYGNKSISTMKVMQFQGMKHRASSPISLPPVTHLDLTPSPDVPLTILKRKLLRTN
Briefly: Legumain activity detection in human plasma (peptide 1/ThT). Format: biochemical. On the procedure:
In the peptide concentration experiment, appropriate amounts of peptide 1 stock solution (10 mg/mL) were diluted in PBS and mixed with the MES buffer containing legumain, as described above, to give the final peptide concentrations between 0.05 and 1 mg/mL in the assay. In kinetic studies, ThT solution was mixed with the peptide immediately before the addition of activated legumain, and the plate was incubated in a Spark 20M microplate reader (Tecan) at 37° C. for 3 hours, and ThT fluorescence was recorded every 4 minutes. For the inhibitor experiment, the legumain inhibitor, RR-11a, was first dissolved in DMSO (1 mM), and appropriate amounts of inhibitor were incubated with legumain for about 1.0 hour at room temperature in 96 well plates. Finally, the legumain solutions incubated with different amounts of inhibitor were mixed with the peptide 1 solution, and the assay was performed as described above. […]
To assess the possibility of using the developed self-assembling polypeptides and methods in complex biological environments, legumain detection experiments in human plasma were performed. In initial studies, a background fluorescence signal in plasma (20%) was detected due to the nonspecific interactions between ThT and plasma proteins (see FIG. 24A) (Rovnyagina, N. R. et al., Binding of Thioflavin T by Albumins: An Underestimated Role of Protein Oligomeric Heterogeneity. Int. J. Biol. Macromol. 2018, 108, 284-290). While this background signal was relatively strong, the incubation of peptide 1 in legumain (1000 ng/mL) spiked plasma still produced a detectable fluorescence enhancement (about 2.5 fold) after the addition of ThT (90 μM). […]
Having a better understanding of the assay's background fluorescence, further studies were performed to optimize the assay performance in plasma. To reduce the background fluorescence, the assay was run in plasma using lower ThT concentrations (see FIGS. 26A and 26B). […] In the optimized assay conditions, a fluorescence enhancement of about 20 fold was obtained in 10% plasma at the legumain concentration of 1000 ng/mL as shown in FIG. 12A. […]

Data set [2] can be described thus: Solubility in aqueous solutions. It counts as physicochemical.

Peptide text beside a SMILES is read from it. * marks the point of attachment. Fmoc = O=C(OCC1c2ccccc2-c2ccccc21)*

In the case of `C[C@H](NC(=O)[C@H](C)NC(=O)[C@H](CCC(=O)O)NC(=O)[C@H](Cc1ccccc1)NC(=O)[C@H](CCCCN)NC(=O)[C@H](Cc1ccccc1)NC(=O)OCC1c2ccccc2-c2ccccc21)C(=O)N[C@@H](CC(N)=O)C(=O)NCC(=O)N[C@@H](CCC(=O)O)C(=O)N[C@@H](CCC(=O)O)C(=O)NCC(=O)N[C@@H](CO)C(=O)NCC(=O)N[C@@H](CCC(=O)O)C(=O)N[C@@H](CCC(=O)O)C(=O)O` [peptide 1] (Fmoc-FKFEAANGEEGSGEE-OH; C-terminus assumed), in data set [1], the “stability of the formed structures (CD spectrum)” value is reported as “long-term stability”. For the same compound, the fluorescence enhancement entry at legumain (10% plasma, ThT 25 μM, legumain 1000 ng/mL) is given as “about 20 fold”; at legumain (20% plasma spiked with legumain 1000 ng/mL, ThT 90 μM), “about 2.5 fold”. Moreover, the “ON/OFF ratio of the assay” value at legumain (albumin depleted 20% plasma) was “about 10”. For the same compound, in data set [2], the “solubility in aqueous solutions” value is “good solubility”.

For the origin of these results see patent US20250123280A1, “LABEL-FREE DETECTION OF PROTEASE ACTIVITY” (OREGON HEALTH & SCIENCE UNIVERSITY, priority 2021, published 2025).
